Data: US20260262643A1, “HERBICIDAL BENZOXAZINES” (FMC CORPORATION, priority 2022, published 2026)

What was measured:
[1] = tested on: barnyardgrass; assay: Test C preemergence; assay type: in vivo, Echinochloa crusgalli; settings: for Barnyardgrass plant response rating: preemergence; for Plant response rating, Barnyardgrass: Preemergence
Summary of the method: (§1)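 Visual injury score, 0–100 (100 = complete control), taken 10 days after treatment relative to untreated controls. Pre: directed spray onto soil over sown seeds. Post: foliar spray at one- to two-leaf stage, 2–10 cm. Solvent/surfactant formulation; loam–sand soil; greenhouse.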

[2] = tested on: blackgrass; assay: Test C preemergence; assay type: in vivo, Alopecurus myosuroides; settings: for Blackgrass plant response rating: preemergence; for Plant response rating, Blackgrass: Preemergence
Summary of the method: as §1

[3] = tested on: corn; assay: Test C preemergence; assay type: in vivo, Zea mays; settings: for Corn plant response rating: preemergence; for Plant response rating, Corn: Preemergence
Summary of the method: as §1

[4] = tested on: green foxtail; assay: Test C preemergence; assay type: in vivo, Setaria viridis; settings: for Foxtail, Green plant response rating: preemergence; for Plant response rating, Foxtail, Green: Preemergence
Summary of the method: as §1

[5] = tested on: kochia; assay: Test C preemergence; assay type: in vivo, Bassia scoparia; settings: for Kochia plant response rating: preemergence; for Plant response rating, Kochia: Preemergence
Summary of the method: as §1

[6] = tested on: oat, wild; assay: Test C preemergence; assay type: in vivo, Avena fatua; settings: for Oat, Wild plant response rating: preemergence; for Plant response rating, Oat, Wild: Preemergence
Summary of the method: as §1

[7] = tested on: pigweed, palmer; assay: Test C preemergence; assay type: in vivo, Amaranthus palmeri; settings: for Pigweed, Palmer plant response rating: preemergence; for Plant response rating, Pigweed, Palmer: Preemergence
Summary of the method: as §1

[8] = tested on: ragweed; assay: Test C preemergence; assay type: in vivo, Ambrosia artemisiifolia; settings: for Ragweed plant response rating: preemergence; for Plant response rating, Ragweed: Preemergence
Summary of the method: as §1

[9] = tested on: ryegrass, Italian; assay: Test C preemergence; assay type: in vivo, Lolium multiflorum; settings: for Ryegrass, Italian plant response rating: preemergence; for Plant response rating, Ryegrass, Italian: Preemergence
Summary of the method: as §1

[10] = tested on: soybean; assay: Test C preemergence; assay type: in vivo, Glycine max; settings: for Soybean plant response rating: preemergence; for Plant response rating, Soybean: Preemergence
Summary of the method: as §1

[11] = tested on: wheat; assay: Test C preemergence; assay type: in vivo, Triticum aestivum; settings: for Wheat plant response rating: preemergence; for Plant response rating, Wheat: Preemergence
Summary of the method: as §1

[12] = tested on: barnyardgrass; assay: Test C postemergence; assay type: in vivo, Echinochloa crusgalli; settings: 10 days
Summary of the method: as §1

[13] = tested on: blackgrass; assay: Test C postemergence; assay type: in vivo, Alopecurus myosuroides; settings: 10 days
Summary of the method: as §1

[14] = tested on: corn; assay: Test C postemergence; assay type: in vivo, Zea mays; settings: 10 days
Summary of the method: as §1

[15] = tested on: green foxtail; assay: Test C postemergence; assay type: in vivo, Setaria viridis; settings: 10 days
Summary of the method: as §1

[16] = tested on: kochia; assay: Test C postemergence; assay type: in vivo, Bassia scoparia; settings: 10 days
Summary of the method: as §1

[17] = tested on: oat, wild; assay: Test C postemergence; assay type: in vivo, Avena fatua; settings: 10 days
Summary of the method: as §1

[18] = tested on: pigweed, palmer; assay: Test C postemergence; assay type: in vivo, Amaranthus palmeri; settings: 10 days
Summary of the method: as §1

[19] = tested on: ragweed; assay: Test C postemergence; assay type: in vivo, Ambrosia artemisiifolia; settings: 10 days
Summary of the method: as §1

[20] = tested on: ryegrass, Italian; assay: Test C postemergence; assay type: in vivo, Lolium multiflorum; settings: 10 days
Summary of the method: as §1

[21] = tested on: soybean; assay: Test C postemergence; assay type: in vivo, Glycine max; settings: 10 days
Summary of the method: as §1

[22] = tested on: wheat; assay: Test C postemergence; assay type: in vivo, Triticum aestivum; settings: 10 days
Summary of the method: as §1

[23] = tested on: galium; assay: Test C postemergence; assay type: in vivo, Galium aparine; settings: 10 days
Summary of the method: as §1

[24] = tested on: horseweed; assay: Test C postemergence; assay type: in vivo, Erigeron canadensis; settings: 10 days
Summary of the method: as §1

[25] = tested on: barnyardgrass; assay: Test D flooded paddy test; assay type: in vivo, Echinochloa crus-galli; settings: 250 g ai/ha, applied to paddy water, visual rating after 13 to 14 days, scale 0 to 100 (0 no effect, 100 complete control)
Summary of the method: (§2)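 Post-flood water application at the 2-leaf stage; 3 cm flood depth kept constant; visual control rating 0–100 after 13–14 days greenhouse growth.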

[26] = tested on: ducksalad; assay: Test D flooded paddy test; assay type: in vivo, Heteranthera limosa; settings: 250 g ai/ha, applied to paddy water, visual rating after 13 to 14 days, scale 0 to 100 (0 no effect, 100 complete control)
Summary of the method: as §2

[27] = tested on: rice; assay: Test D flooded paddy test; assay type: in vivo, Oryza sativa; settings: 250 g ai/ha, applied to paddy water, visual rating after 13 to 14 days, scale 0 to 100 (0 no effect, 100 complete control)
Summary of the method: as §2

[28] = tested on: sedge, umbrella; assay: Test D flooded paddy test; assay type: in vivo, Cyperus difformis; settings: 250 g ai/ha, applied to paddy water, visual rating after 13 to 14 days, scale 0 to 100 (0 no effect, 100 complete control)
Summary of the method: as §2

[29] = 500 g ai/ha, 0 to 100 scale (0 no effect, 100 complete control)
[30] = 125 g ai/ha, 0 to 100 scale, 0 no effect, 100 complete control
[31] = 500 g ai/ha, postemergence, 0 to 100 scale (0 no effect, 100 complete control)
[32] = Postemergence, 125 g ai/ha, 0 to 100 scale (0 no effect, 100 complete control)
[33] = 500 g ai/ha, visual rating after 10 days, 0 to 100 scale (0 no effect, 100 complete control)
[34] = Test C, 125 g ai/ha, 0 to 100 scale (0 no effect, 100 complete control)
[35] = 125 g ai/ha, postemergence, 0 to 100 scale, 0 no effect, 100 complete control
[36] = Postemergence, 500 g ai/ha, visual 0 to 100 scale (0 no effect, 100 complete control)

## Cc1cccc2c1OC(C(F)(F)F)CN2C(=O)c1cccc(-n2cnc(C(C)(C)C)n2)c1 (centres unmarked) [Compound 347]
[1]; [29]
  Barnyardgrass plant response rating: 100
[1]; [30]
  Plant response rating, Barnyardgrass: 20
[2]; [29]
  Blackgrass plant response rating: 30
[2]; [30]
  Plant response rating, Blackgrass: 10
[3]; [29]
  Corn plant response rating: 10
[3]; [30]
  Plant response rating, Corn: 0
[4]; [29]
  Foxtail, Green plant response rating: 100
[4]; [30]
  Plant response rating, Foxtail, Green: 90
[5]; [29]
  Kochia plant response rating: 60
[5]; [30]
  Plant response rating, Kochia: 50
[6]; [29]
  Oat, Wild plant response rating: 70
[6]; [30]
  Plant response rating, Oat, Wild: 60
[7]; [29]
  Pigweed, Palmer plant response rating: 70
[7]; [30]
  Plant response rating, Pigweed, Palmer: 80
[8]; [29]
  Ragweed plant response rating: 30
[8]; [30]
  Plant response rating, Ragweed: 0
[9]; [29]
  Ryegrass, Italian plant response rating: 100
[9]; [30]
  Plant response rating, Ryegrass, Italian: 100
[10]; [29]
  Soybean plant response rating: 30
[10]; [30]
  Plant response rating, Soybean: 30
[11]; [29]
  Wheat plant response rating: 40
[11]; [30]
  Plant response rating, Wheat: 20
[12]; [31]
  Plant response rating, Barnyardgrass: 20
[12]; [32]
  Plant response rating, Barnyardgrass: 10
[13]; [31]
  Plant response rating, Blackgrass: 60
[13]; [32]
  Plant response rating, Blackgrass: 10
[14]; [31]
  Plant response rating, Corn: 10
[14]; [32]
  Plant response rating, Corn: 10
[15]; [31]
  Plant response rating, Foxtail, Green: 60
[15]; [32]
  Plant response rating, Foxtail, Green: 20
[16]; [31]
  Plant response rating, Kochia: 70
[16]; [32]
  Plant response rating, Kochia: 50
[17]; [31]
  Plant response rating, Oat, Wild: 10
[17]; [32]
  Plant response rating, Oat, Wild: 10
[18]; [31]
  Plant response rating, Pigweed, Palmer: 80
[18]; [32]
  Plant response rating, Pigweed, Palmer: 80
[19]; [31]
  Plant response rating, Ragweed: 50
[19]; [32]
  Plant response rating, Ragweed: 20
[20]; [31]
  Plant response rating, Ryegrass, Italian: 30
[20]; [32]
  Plant response rating, Ryegrass, Italian: 20
[21]; [31]
  Plant response rating, Soybean: 100
[21]; [32]
  Plant response rating, Soybean: 100
[22]; [31]
  Plant response rating, Wheat: 10
[22]; [32]
  Plant response rating, Wheat: 10
[23]; [31]
  Plant response rating, Galium: 80
[23]; [32]
  Plant response rating, Galium: 90
[24]; [31]
  Plant response rating, Horseweed: 20
[24]; [32]
  Plant response rating, Horseweed: 0
[25]
  Plant response rating, Barnyardgrass (Flood): 0
[26]
  Plant response rating, Ducksalad (Flood): 0
[27]
  Plant response rating, Rice (Flood): 0
[28]
  Plant response rating, Sedge, Umbrella (Flood): 0

## CC(C)c1ncn(-c2cc3c(c(C(=O)N4C[C@H](C)Oc5c(Cl)cccc54)c2)CCC3)n1 [Compound 174]
[1]; [33]
  Plant response rating, Barnyardgrass: 100
[1]; [34]
  Barnyardgrass plant response rating: 80
[2]; [33]
  Plant response rating, Blackgrass: 80
[2]; [34]
  Blackgrass plant response rating: 70
[3]; [33]
  Plant response rating, Corn: 50
[3]; [34]
  Corn plant response rating: 10
[4]; [33]
  Plant response rating, Foxtail, Green: 100
[4]; [34]
  Foxtail, Green plant response rating: 100
[5]; [33]
  Plant response rating, Kochia: 90
[5]; [34]
  Kochia plant response rating: 70
[6]; [33]
  Plant response rating, Oat, Wild: 80
[6]; [34]
  Oat, Wild plant response rating: 20
[7]; [33]
  Plant response rating, Pigweed, Palmer: 100
[7]; [34]
  Pigweed, Palmer plant response rating: 100
[8]; [33]
  Plant response rating, Ragweed: 10
[8]; [34]
  Ragweed plant response rating: 0
[9]; [33]
  Plant response rating, Ryegrass, Italian: 90
[9]; [34]
  Ryegrass, Italian plant response rating: 80
[10]; [33]
  Plant response rating, Soybean: 100
[10]; [34]
  Soybean plant response rating: 70
[11]; [33]
  Plant response rating, Wheat: 10
[11]; [34]
  Wheat plant response rating: 0
[12]; [35]
  Plant response rating, Barnyardgrass: 50
[12]; [36]
  Plant response rating, Barnyardgrass: 60
[13]; [35]
  Plant response rating, Blackgrass: 60
[13]; [36]
  Plant response rating, Blackgrass: 90
[14]; [35]
  Plant response rating, Corn: 70
[14]; [36]
  Plant response rating, Corn: 80
[15]; [35]
  Plant response rating, Foxtail, Green: 70
[15]; [36]
  Plant response rating, Foxtail, Green: 90
[16]; [35]
  Plant response rating, Kochia: 90
[16]; [36]
  Plant response rating, Kochia: 100
[17]; [35]
  Plant response rating, Oat, Wild: 50
[17]; [36]
  Plant response rating, Oat, Wild: 70
[18]; [35]
  Plant response rating, Pigweed, Palmer: 90
[18]; [36]
  Plant response rating, Pigweed, Palmer: 100
[19]; [35]
  Plant response rating, Ragweed: 60
[19]; [36]
  Plant response rating, Ragweed: 70
[20]; [35]
  Plant response rating, Ryegrass, Italian: 50
[20]; [36]
  Plant response rating, Ryegrass, Italian: 70
[21]; [35]
  Plant response rating, Soybean: 100
[21]; [36]
  Plant response rating, Soybean: 100
[22]; [35]
  Plant response rating, Wheat: 20
[22]; [36]
  Plant response rating, Wheat: 40
[23]; [35]
  Plant response rating, Galium: 100
[23]; [36]
  Plant response rating, Galium: 100
[24]; [35]
  Plant response rating, Horseweed: 0
[24]; [36]
  Plant response rating, Horseweed: 30
[25]
  Plant response rating, Barnyardgrass (Flood): 0
[26]
  Plant response rating, Ducksalad (Flood): 0
[27]
  Plant response rating, Rice (Flood): 0
[28]
  Plant response rating, Sedge, Umbrella (Flood): 0
